Assay results: ChEMBL document CHEMBL1201862, “PubChem BioAssay data set” (2004)
Blank lines part the entries; values can stand above or below the compound they belong to. Calls of active or inactive are those of the source.

Columns and labels:
[1] = target: Sphingosine 1-phosphate receptor 1 (Homo sapiens, UniProt P21453); assay: Fluorescence-based counterscreen assay for S1P4 agonists: Cell-based dose response high throughput screening assay to identify agonists of the Sphingosine 1-Phosphate Receptor 1 (S1P1). [Related pubchem assays (depositor defined):AID1509, AID1523, AID1801, AID463107, AID463118, AID463119, AID463122, AID463123, AID463129, AID463225, AID504400, AID504460]; type: functional
[2] = target: T1, Sphingosine 1-phosphate receptor 4 (Homo sapiens, UniProt O95977); assay: Fluorescence dose response cell-based high throughput screening assay for agonists of the Sphingosine 1-Phosphate Receptor 4 (S1P4). [Related pubchem assays: 1509 (Primary screen.), 1523 (Confirmation screen in triplicates.)]; type: functional
T1 sequence (O95977 whole entry): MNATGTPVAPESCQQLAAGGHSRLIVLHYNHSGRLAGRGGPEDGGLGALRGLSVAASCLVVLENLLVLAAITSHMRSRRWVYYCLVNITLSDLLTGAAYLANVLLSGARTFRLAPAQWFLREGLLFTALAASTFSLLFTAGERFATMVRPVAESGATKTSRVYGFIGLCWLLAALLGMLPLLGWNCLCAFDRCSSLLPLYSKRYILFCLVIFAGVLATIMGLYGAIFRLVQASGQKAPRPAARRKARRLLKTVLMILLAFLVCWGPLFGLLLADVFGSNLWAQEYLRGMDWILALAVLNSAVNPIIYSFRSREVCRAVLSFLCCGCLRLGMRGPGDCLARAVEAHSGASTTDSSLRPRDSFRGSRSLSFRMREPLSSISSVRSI

[3] = target: T2, Tyrosine-protein phosphatase non-receptor type 22 (Homo sapiens, UniProt Q9Y2R2); type: functional
T2 sequence (Q9Y2R2 whole entry): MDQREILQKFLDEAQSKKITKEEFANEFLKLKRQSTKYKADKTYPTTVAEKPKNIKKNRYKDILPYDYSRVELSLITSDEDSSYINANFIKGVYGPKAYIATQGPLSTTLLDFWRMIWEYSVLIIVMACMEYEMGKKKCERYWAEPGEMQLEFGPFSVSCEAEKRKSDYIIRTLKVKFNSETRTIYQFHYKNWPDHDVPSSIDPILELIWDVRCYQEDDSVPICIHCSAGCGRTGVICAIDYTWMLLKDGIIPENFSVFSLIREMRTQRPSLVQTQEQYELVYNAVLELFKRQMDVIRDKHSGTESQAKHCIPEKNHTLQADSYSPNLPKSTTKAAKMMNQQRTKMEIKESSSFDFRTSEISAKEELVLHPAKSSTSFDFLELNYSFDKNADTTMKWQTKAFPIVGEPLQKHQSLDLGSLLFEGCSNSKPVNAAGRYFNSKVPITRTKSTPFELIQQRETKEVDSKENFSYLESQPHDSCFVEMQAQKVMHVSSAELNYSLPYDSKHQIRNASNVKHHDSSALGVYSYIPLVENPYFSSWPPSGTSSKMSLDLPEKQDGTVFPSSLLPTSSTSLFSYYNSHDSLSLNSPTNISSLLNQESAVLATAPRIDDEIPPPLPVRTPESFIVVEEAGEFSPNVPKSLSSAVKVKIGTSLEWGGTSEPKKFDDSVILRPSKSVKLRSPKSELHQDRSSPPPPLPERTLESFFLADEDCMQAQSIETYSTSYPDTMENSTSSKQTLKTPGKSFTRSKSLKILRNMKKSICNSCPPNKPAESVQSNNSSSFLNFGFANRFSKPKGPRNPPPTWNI

[4] = target: T3, Tyrosine-protein phosphatase non-receptor type 7 (Homo sapiens, UniProt P35236); type: functional
T3 sequence (P35236 whole entry): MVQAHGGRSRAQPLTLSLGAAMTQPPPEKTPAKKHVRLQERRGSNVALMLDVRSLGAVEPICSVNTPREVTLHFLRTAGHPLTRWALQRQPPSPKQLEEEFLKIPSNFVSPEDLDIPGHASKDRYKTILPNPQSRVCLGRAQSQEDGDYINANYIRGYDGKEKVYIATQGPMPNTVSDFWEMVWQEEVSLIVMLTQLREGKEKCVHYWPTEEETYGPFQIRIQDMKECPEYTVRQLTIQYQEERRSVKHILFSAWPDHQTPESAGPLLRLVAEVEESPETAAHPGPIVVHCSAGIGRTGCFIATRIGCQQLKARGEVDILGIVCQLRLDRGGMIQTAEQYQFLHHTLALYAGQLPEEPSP

[5] = target: T2, Tyrosine-protein phosphatase non-receptor type 22; type: functional; remark: listed apart in the source
[6] = toxicity toward cultured mammalian cells – cell-based, plate reader, cherry-pick samples, cytotoxicity control, dose response (AID 504397); type: functional
[7] = target: T4, CAAX prenyl protease 2 (Saccharomyces cerevisiae S288c, UniProt Q03530); type: biochemical
T4 sequence (Q03530 whole entry): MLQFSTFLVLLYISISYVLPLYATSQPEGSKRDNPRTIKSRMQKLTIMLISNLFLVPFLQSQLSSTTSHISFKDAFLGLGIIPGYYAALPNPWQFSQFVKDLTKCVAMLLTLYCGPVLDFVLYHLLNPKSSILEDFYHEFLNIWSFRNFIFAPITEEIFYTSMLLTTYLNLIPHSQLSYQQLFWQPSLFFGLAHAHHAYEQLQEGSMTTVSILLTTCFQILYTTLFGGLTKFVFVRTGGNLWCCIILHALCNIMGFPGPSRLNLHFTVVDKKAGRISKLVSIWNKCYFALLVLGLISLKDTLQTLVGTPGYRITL

[8] = target: T5, Orexin/Hypocretin receptor type 1 (Homo sapiens, UniProt O43613); assay: (§1) Fluorescence-based cell-based high throughput dose response assay for antagonists of the orexin 1 receptor (OX1R; HCRTR1). [Related pubchem assays (depositor defined):AID434989, AID435008, AID463079, AID485270, AID492963, AID492964, AID492965, AID493232, AID504717, AID504718]; type: functional
[9] = test system: CHO-K1; assay: (§2) Counterscreen for antagonists of the orexin 1 receptor (OX1R; HCRTR1): Homogeneous time resolved fluorescence (HTRF)-based cell-based dose response assay to identify antagonists of the parental CHO-K1 cell line. [Related pubchem assays (depositor defined):AID434989, AID435008, AID463079, AID485270, AID492963, AID492964, AID492965, AID493232, AID504699, AID504701]; type: functional; conditions: Cricetulus griseus
[10] = target: T5, Orexin/Hypocretin receptor type 1; assay: as §1, with “Homogeneous Time Resolved Fluorescence (HTRF)-based” for “Fluorescence-based”; type: functional
[11] = as §2, with “Fluorescence-based” for “Homogeneous time resolved fluorescence (HTRF)-based”, “cell-based high throughput” for “cell-based”, “CHO” for “CHO-K1”; type: functional

T5 sequence (O43613 whole entry): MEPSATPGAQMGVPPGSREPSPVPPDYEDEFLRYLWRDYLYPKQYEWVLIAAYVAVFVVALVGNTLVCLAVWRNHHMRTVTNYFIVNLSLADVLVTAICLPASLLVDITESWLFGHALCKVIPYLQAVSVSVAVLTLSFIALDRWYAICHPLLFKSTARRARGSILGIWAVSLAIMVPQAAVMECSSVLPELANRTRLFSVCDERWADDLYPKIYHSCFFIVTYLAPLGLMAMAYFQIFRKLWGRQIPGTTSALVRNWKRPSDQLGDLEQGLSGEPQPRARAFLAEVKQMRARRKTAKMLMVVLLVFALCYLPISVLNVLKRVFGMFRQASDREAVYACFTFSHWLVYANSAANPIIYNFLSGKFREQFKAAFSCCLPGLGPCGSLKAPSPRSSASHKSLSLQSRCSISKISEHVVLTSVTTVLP
Sequence of Sphingosine 1-phosphate receptor 1 (P21453 whole entry): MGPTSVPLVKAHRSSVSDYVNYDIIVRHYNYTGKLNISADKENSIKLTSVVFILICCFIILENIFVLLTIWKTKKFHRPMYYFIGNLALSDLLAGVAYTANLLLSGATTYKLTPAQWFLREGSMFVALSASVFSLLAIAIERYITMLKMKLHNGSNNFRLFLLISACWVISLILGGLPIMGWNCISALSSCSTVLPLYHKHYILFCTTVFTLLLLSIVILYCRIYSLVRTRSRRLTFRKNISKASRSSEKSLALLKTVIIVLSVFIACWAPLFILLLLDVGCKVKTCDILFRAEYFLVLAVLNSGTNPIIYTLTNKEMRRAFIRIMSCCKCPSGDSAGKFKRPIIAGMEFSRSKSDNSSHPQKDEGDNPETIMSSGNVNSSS

- EC50 [1]: 10.6 µM (inactive)
- EC50 [2]: 3.72 µM (active)
Structure (SMILES): Cc1ccc2nc3c(cc(C#N)c(=O)n3-c3nccs3)c(=O)n2c1

- IC50 [3]: > 79.4 µM (inactive)
- IC50 [4]: > 79.4 µM (inactive)
- IC50 [5]: > 79.4 µM (inactive)
Structure (SMILES): CC1=NN(C(=O)c2ccc(Cn3ccc([N+](=O)[O-])n3)cc2)C(O)(C(F)(F)F)C1 (stereo unspecified)

Structure (SMILES): Nc1nnnn1/N=C/c1cccc(OCc2ccccc2Cl)c1
- AC50 [6]: > 350 µM (inactive)
- AC50 [7]: 2.78 µM (active)

Structure (SMILES): CC(=O)NC(N=C(S)Nc1ccc(N=Nc2ccccc2)cc1)C(Cl)(Cl)Cl (stereo unspecified)
- IC50 [8]: 6.68 µM (active)
- IC50 [9]: > 66.2 µM (inactive)
- IC50 [10]: 42.3 µM (inactive)
- IC50 [11]: > 5.53 µM (active)
